Reference: US20250361227A1, “INHIBITORS OF FLI1 AND ERG” (UNIVERSITY OF VIRGINIA PATENT FOUNDATION, priority 2022, published 2025)

Tests used:
ETV6 (TEL) = biological target: T1, ETV6 (TEL) (Homo sapiens, UniProt P41212); experiment: Fluorescence polarization DNA binding assay, auto-inhibited ETV6; details: auto-inhibited construct; NA = no activity up to 2000 μM; >number = estimate from fit with lower bound
T1 sequence (P41212 1-452): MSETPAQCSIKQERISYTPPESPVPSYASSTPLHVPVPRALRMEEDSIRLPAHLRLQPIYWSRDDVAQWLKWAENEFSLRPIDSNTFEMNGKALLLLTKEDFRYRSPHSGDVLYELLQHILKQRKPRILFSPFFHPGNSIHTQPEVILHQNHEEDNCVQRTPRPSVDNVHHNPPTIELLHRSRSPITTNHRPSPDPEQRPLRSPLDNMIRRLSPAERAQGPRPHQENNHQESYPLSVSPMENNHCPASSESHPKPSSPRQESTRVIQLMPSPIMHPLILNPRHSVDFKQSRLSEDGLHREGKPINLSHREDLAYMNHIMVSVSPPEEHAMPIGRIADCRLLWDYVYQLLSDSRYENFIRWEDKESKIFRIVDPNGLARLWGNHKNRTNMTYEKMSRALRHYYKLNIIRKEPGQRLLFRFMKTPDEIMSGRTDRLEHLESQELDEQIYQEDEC
From the text: (§1) The constructs of ERG which retain full auto-inhibition were previously delineated (17). Fluorescence polarization-based assays for DNA binding were then developed, which were used for screening. In addition to the auto-inhibited form of ERG, it was important to also have an assay using its Ets domain, i.e., the uninhibited form of the protein, to compare action of compounds. Compounds which are active against the auto-inhibited form of the protein but have little or no effect on the uninhibited form were sought, indicating their binding is mediated by the non-conserved auto-inhibitory modules rather than the highly conserved Ets domain. […] Fragment screening is an alternative approach that has gained a great deal of favor in the pharma industry recently that employs relatively small molecules (22). […] The auto-inhibited construct was screened first with a dose dependent screen of actives with ERGi using fluorescein- and Texas Red-DNA and then the positive hits were counter-screened with the ERG Ets domain, specifically a screen of actives with ERGu, the latter screen serving to remove compounds which bind to the conserved Ets domain or to DNA, which left 26 compounds which inhibit the auto-inhibited construct of ERG binding to DNA but not the uninhibited ERG (the Ets domain) binding to DNA. ERGi is the auto-inhibited construct of ERG (272-388) and ERGu is the uninhibited DNA binding domain construct of ERG (289-378). […] The IC50 of the validated hits was 0.6-7 mM. […] Importantly, chemical shift changes upon compound addition are observed in the ^15N-^1H HSQC NMR spectra of ERG for amino acids located in the auto-inhibitory modules of ERG, indicating they do interact with these regions of the protein. It is critical to also develop assays for other ETS family members to assess the specificity of action of the compounds identified in the screen, so auto-inhibited constructs were expressed and assays were developed for five other ETS family members and assays for additional members of the family were also developed.
(§2) Using a standard medicinal chemistry approach, further optimization of the fragment hits were pursued. The specificity of parent fragments and their optimized derivatives with 5 additional Ets proteins which are representatives of 5 additional sub-families, were evaluated, as shown in Table 2. […] NA in Table 2 represents no activity up to the 2000 μM maximum concentration. >number in Table 2 represents some activity at highest concentrations so data fit with a lower bound to obtain an estimate of IC50.

ELF3 = biological target: T2, ELF3 (Homo sapiens, UniProt P78545); experiment: Fluorescence polarization DNA binding assay, auto-inhibited ELF3; details: auto-inhibited construct; NA = no activity up to 2000 μM; >number = estimate from fit with lower bound
T2 sequence (P78545 1-371): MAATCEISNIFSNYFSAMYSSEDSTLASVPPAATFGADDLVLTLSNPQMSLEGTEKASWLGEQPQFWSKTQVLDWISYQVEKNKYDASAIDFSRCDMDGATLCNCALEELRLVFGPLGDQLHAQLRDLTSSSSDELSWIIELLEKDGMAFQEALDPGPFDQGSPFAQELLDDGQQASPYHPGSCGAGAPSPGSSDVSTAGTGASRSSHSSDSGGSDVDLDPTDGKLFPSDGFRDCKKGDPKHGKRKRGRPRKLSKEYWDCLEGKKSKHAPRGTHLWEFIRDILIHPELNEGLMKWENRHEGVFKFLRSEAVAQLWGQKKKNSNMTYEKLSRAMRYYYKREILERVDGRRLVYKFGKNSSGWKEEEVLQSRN
From the text: as §1, §2

Spi1 (PU.1) = Spi1 (PU.1) (Homo sapiens, UniProt P17947); experiment: Fluorescence polarization DNA binding assay, auto-inhibited PU.1; details: auto-inhibited construct; NA = no activity up to 2000 μM; >number = estimate from fit with lower bound
From the text: as §1, §2

Ets1 = biological target: T3, Ets1 (Homo sapiens, UniProt P14921); experiment: Fluorescence polarization DNA binding assay, auto-inhibited Ets-1; details: auto-inhibited construct; NA = no activity up to 2000 μM; >number = estimate from fit with lower bound
T3 sequence (P14921 1-441): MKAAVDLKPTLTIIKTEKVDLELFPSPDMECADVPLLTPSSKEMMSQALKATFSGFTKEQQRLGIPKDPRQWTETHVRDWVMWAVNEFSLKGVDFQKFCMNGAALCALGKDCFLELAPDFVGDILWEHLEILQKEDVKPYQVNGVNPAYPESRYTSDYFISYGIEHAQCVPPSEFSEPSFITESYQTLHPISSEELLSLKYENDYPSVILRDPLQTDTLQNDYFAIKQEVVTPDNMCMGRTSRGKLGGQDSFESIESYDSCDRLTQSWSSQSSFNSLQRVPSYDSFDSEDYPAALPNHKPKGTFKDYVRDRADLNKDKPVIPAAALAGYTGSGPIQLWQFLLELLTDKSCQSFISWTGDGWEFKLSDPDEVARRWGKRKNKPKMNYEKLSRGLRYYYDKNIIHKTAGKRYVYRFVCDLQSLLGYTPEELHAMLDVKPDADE
From the text: as §1, §2

[1] = biological target: T4, ERG auto-inhibited construct (ERGi, 272-388) (Homo sapiens, UniProt P11308); experiment: ERGi-DNA fluorescence polarization assay; format: binding; details: optimized fragment analogs, values in text; read-out: IC50
T4 construct: made in house
T4 sequence (P11308 272-388 isoform P11308-1): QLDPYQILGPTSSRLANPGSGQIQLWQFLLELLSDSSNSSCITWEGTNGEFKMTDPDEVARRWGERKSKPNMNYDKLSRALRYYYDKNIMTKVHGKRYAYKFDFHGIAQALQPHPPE
From the text: as §1, §2

ELK1 = biological target: T5, ELK1 (Homo sapiens, UniProt P19419); experiment: Fluorescence polarization DNA binding assay, auto-inhibited ELK1; details: auto-inhibited construct; NA = no activity up to 2000 μM; >number = estimate from fit with lower bound
T5 sequence (P19419 1-428): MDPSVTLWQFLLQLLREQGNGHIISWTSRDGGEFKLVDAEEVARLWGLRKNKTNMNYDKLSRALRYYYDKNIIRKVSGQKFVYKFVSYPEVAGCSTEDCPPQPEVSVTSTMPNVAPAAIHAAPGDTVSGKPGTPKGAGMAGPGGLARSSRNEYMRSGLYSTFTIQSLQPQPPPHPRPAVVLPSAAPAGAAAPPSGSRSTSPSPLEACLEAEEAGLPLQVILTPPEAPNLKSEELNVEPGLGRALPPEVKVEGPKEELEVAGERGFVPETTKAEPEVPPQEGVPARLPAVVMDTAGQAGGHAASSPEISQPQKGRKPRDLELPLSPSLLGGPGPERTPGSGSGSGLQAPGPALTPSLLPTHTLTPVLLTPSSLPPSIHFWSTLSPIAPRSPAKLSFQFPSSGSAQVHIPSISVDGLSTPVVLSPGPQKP
From the text: as §1, §2

[2] = biological target: T6, ERG isolated Ets domain (ERGu, 289-378) (Homo sapiens, UniProt P11308); experiment: Fluorescence polarization DNA binding assay, uninhibited ERG; details: FP DNA binding, NA = no activity up to 2000 μM, >number = estimate from fit with lower bound
T6 construct: made in house
T6 sequence (P11308 289-378 isoform P11308-1): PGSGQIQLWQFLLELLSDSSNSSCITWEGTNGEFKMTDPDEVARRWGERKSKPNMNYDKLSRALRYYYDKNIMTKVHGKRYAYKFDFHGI
From the text: as §1, §2

[3] = system: Ewing's sarcoma cell lines; experiment: Growth of Ewing's sarcoma cell lines; format: cell-based; details: read-out: IC50 values for inhibition of the growth
Description: (§3) The compounds of formula (I), in particular those in Table 3, were tested for their effects on the growth of Ewing sarcoma cell lines as well as a rhabdomyosarcoma cell line as a control. The inhibitors are active against Ewing sarcoma cell lines with sub μM EC50 values but not active with the rhabdomyosarcoma cell line. The relative activity of the compounds in the biochemical assay was also observed in the cellular data, consistent with an on-target mechanism of action. […] The inhibitor decreases expression of the two genes activated by EWS-FL11 and activates the expression of the gene repressed by EWS-FLI1, consistent with an on-target mechanism of action. The inhibitors have also been evaluated across a panel of leukemia cell lines and see selective activity on cell lines with an ERG and/or FLI1 dependence.
Evaluation of ERG inhibitors on Ewing's sarcoma cell lines. FIGS. 16A-16D show the results of treatment of Ewing's sarcoma cell lines with the bivalent ERG inhibitors. […] Ewing's sarcoma has EWS-FLI1 and EWS-ERG fusions (FLI1 is highly homologous to ERG). ERG inhibitors show submicromolar EC50 values for Ewing's sarcoma cell lines. […] Importantly, for the unrelated rhabdomyosarcoma cell line included in this panel, there was minimal inhibition of growth.

ERG = biological target: T7, ERG (Homo sapiens, UniProt P11308); experiment: Time-dependent ERG-DNA fluorescence polarization assay; details: time-dependent inhibition of ERG-DNA binding, irreversible inhibitor
T7 sequence (P11308 1-462 isoform P11308-1): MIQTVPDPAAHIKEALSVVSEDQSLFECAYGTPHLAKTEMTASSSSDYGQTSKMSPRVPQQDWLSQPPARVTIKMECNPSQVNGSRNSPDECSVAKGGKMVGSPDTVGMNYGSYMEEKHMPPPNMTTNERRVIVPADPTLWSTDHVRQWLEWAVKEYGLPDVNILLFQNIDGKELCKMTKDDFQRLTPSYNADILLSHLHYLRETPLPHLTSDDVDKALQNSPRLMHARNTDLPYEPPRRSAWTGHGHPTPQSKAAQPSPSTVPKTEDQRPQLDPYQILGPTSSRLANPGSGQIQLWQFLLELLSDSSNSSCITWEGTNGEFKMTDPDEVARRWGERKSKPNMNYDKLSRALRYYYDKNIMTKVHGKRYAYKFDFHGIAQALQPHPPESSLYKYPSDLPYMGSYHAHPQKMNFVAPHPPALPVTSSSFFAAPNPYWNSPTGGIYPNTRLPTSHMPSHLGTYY
Description: To assay such compounds time-dependent inhibition of ERG-DNA binding was recorded using a fluorescence polarization (FP) based assay and the rates were fitted to derive KI and kinact for the compounds which were ranked based on the kinact/KI values as has been described previously.
These compounds were assayed using the time-dependent ERG-DNA assay described above. Importantly, time-dependent inhibition was observed, a hallmark of irreversible inhibitors. […] ERG inhibitors show time-dependent inhibition characteristics of irreversible inhibitors based on the following formula: […]
Kobs values were determined from the initial slope for the first 15 minutes. NMR chemical shift perturbation data was consistent with 2 binding sites on ERG. FIG. 14A and FIG. 14B show selected changes in chemical shift for resonances in the ^15N-^1H HSQC NMR spectrum of ERGi upon addition of KK-36-25.

leukemia cell lines = experiment: Panel of leukemia cell lines; format: cell-based; details: Jurkat, RS4-11, Kasumi, K562, THP-1
Description: as §3
ERG inhibitor effects on leukemia cell lines. FIG. 17A-17D and FIG. 18A-18C show the effects of the ERG inhibitor on several leukemia cell lines. […] ERG inhibitors show efficacy against T-ALL cell line (Jurkat) and selective activity against specific leukemia cell lines. […] As expected from previous literature indicating a strong dependence on ERG for T-ALL, the T-ALL cell line Jurkat is quite sensitive to the ERG inhibitors (sub μM IC50 values). […]

| IC50 (ETV6 (TEL)) | IC50 (ELF3) | IC50 (Spi1 (PU.1)) | IC50 (Ets1) | IC50 [1] | IC50 (ELK1) | IC50 [2] | IC50 [3] | Ki (ERG) | SMILES | selectivity across leukemia cell lines (leukemia cell lines) |
| --- | --- | --- | --- | --- | --- | --- | --- | --- | --- | --- |
| > 7800 µM | > 2000 µM | > 5700 µM | > 2000 µM | 99 µM | > 2000 µM | > 2000 µM |  |  | COc1ccc(-c2c(C(C)=O)oc3c(OC)cccc23)cc1 [KK-16-69] |  |
|  |  |  |  |  |  |  | ≤ 1 µM |  | Cc1ccc(-c2nc3cc(Cl)c(NC(=O)CCOCCn4cc(COCCOCCOCCOc5ccc(S(=O)(=O)C6CCN(C(=O)/C=C/c7cc8ccccc8o7)C6)cc5)nn4)cc3o2)cc1 (centres unmarked) [KK-36-84] |  |
|  |  |  |  |  |  |  | ≤ 1 µM | 6.3 µM | Cc1ccc(-c2nc3cc(Cl)c(NC(=O)CCOCCn4cc(COCCOCCOc5ccc(S(=O)(=O)C6CCN(C(=O)/C=C/c7cc8ccccc8o7)C6)cc5)nn4)cc3o2)cc1 (centres unmarked) [KK-36-25] | selective for Leukemia cell lines dependent on ERG |
